Laboratory results reported in patent publication US20230321066A1, “PREVENTATIVE TREATMENT OF MIGRAINE” (priority 2020, published 2023).

How the values were obtained:
[1] = system: episodic and chronic migraine patients; assay: BHV3000-305 Phase 2/3 randomized, double-blind, placebo-controlled study of rimegepant in migraine prevention: efficacy; format: in vivo, human
Experimental: Clinical Trial—BHV3000-305: A Phase 2/3, Randomized, Double-blind, Placebo-controlled Study to Evaluate the Efficacy and Safety of Rimegepant in Migraine Prevention (ClinicalTrials.gov Identifier: NCT03732638).
A phase 2/3 clinical study was conducted with 1629 participants, as follows.
The purpose of this is study is to compare the efficacy of BHV-3000 (rimegepant) to placebo as a preventive treatment for migraine, as measured by the reduction in the number of migraine days per month.
• Study Type: Interventional (Clinical Trial) • Actual Enrollment: 1629 participants • Allocation: Randomized • Intervention Model: Parallel Assignment • Masking: Triple (Participant, Care Provider, Investigator) • Primary Purpose: Prevention • Official Title: A Phase 2/3, Randomized, Double-blind, Placebo-controlled Study to Evaluate the Efficacy and Safety of Rimegepant in Migraine Prevention • Actual Study Start Date: Nov. 14, 2018 • Actual Primary Completion Date: Dec. 10, 2019
Primary Outcome Measures: • 1. Change from baseline in mean number of migraine days per month [Time Frame: Mean number of migraine days per month as assessed over 3 months (12 weeks)] • Change from baseline in mean number of migraine days per month as measured over the 12-week double-blind phase of the study.
Secondary Outcome Measures: • 1. Achievement of at least a 50% reduction from baseline in mean number of moderate to severe monthly migraine days. [Time Frame: baseline to end of Week 12] • Achievement of at least a 50% reduction from baseline in mean number of moderate to severe monthly migraine days over course of the double-blind treatment phase. • 2. The mean number of rescue medication days per month. [Time Frame: baseline to end of week 12 as measure per month] • The mean number of rescue medication days per month over the course of the double-blind, treatment phase. Rescue medications include the rescue medications defined in this protocol. • 3. Adverse events. [Time Frame: baseline to end of Week 12] • Adverse events that occur in at least 5% of treated subjects; the frequency of unique subjects with serious adverse events, adverse events leading to discontinuation and clinically significant laboratory abnormalities, as reported on case report forms. • 4. The frequency of AST or ALT elevations. [Time Frame: baseline to end of Week 12] • The frequency of AST or ALT elevations>3×ULN, concurrently with bilirubin elevations>2×ULN, will be assessed by tabulating the number of unique subjects with this pairing of events. • 5. The frequency of hepatic-related adverse events and hepatic-related treatment. [Time Frame: baseline to end of Week 12] • The frequency of hepatic-related adverse events and hepatic-related treatment discontinuations will be tabulated from case report forms and will be based on unique subjects reporting such events. • 6. The mean change from baseline in the MSQ role function [Time Frame: baseline to end of Week 12] • The mean change from baseline in the MSQ role function—restrictive domain score at Week 12 of the double-blind treatment phase. • 7. The mean change from baseline in the MIDAS total score. [Time Frame: baseline to end of Week 12] • The mean change from baseline in the MIDAS total score at Week 12 of the double-blind treatment phase.
This pivotal study enrolled patients with both episodic and chronic migraine. The study evaluated the efficacy and safety of rimegepant 75 mg (n=370) dosed every other day for the preventive treatment of migraine in patients versus placebo (n=371) who had migraine for at least one year and 4 to 18 moderate to severe migraine attacks per month over three months prior to enrollment. During the one-month observation period, patients experienced on average 10.7 migraine days per month, with 7.4 migraine days of moderate to severe migraine during the same period.

[2] = system: episodic and chronic migraine patients; details: human, in vivo, 12 weeks
[3] = system: episodic and chronic migraine patients; assay: BHV3000-305 study: adverse events and liver safety on double-blind treatment
[4] = 370 patients who received rimegepant 75 mg every other day
[5] = Severity Mild, treated subjects N = 370
[6] = Severity Moderate or Severe, treated subjects N = 370
[7] = Severity Moderate, treated subjects N = 370
[8] = Severity Total, treated subjects N = 370

How did the “reduction in mean number of migraine days as compared to placebo” value ([1]; (4.9−3.7)/3.7*100, participants not taking concomitant preventive treatment) turn out when `N[C@@H]1c2cccnc2[C@H](OC(=O)N2CCC(n3c(=O)[nH]c4ncccc43)CC2)CC[C@H]1c1cccc(F)c1F` [Rimegepant, [(5S,6S,9R)-5-amino-6-(2,3-difluorophenyl)-6,7,8,9-tetrahydro-5H-cyclohepta[b]pyridin-9-yl] 4-(2-oxo-3H-imidazo[4,5-b]pyridin-1-yl)piperidine-1-carboxylate] was run?
Its value is 32%.

What about the “Change From OP in Mean Number of Total Migraine Days per Month in First Month, Least-squares mean, Difference (Rimegepant − Placebo)” value ([1]; Evaluable mITT subjects, P-value 0.0013) of the same compound?
Its value is −0.9.

And the “Change From OP in Mean Number of Total Migraine Days per Month Overall, Least-squares mean, Difference (Rimegepant − Placebo)” value ([1]; Evaluable mITT subjects, P-value 0.0094)?
Its value is −0.7.

What about the “Primary Endpoint: Change From OP in Mean Number of Total Migraine Days per Month in Last Month, Least-squares mean, Difference (Rimegepant − Placebo)” value ([1]; Evaluable mITT subjects, P-value 0.0176, significant in hierarchical testing) of the same compound?
Its value is −0.8.

And the “MSQoL Restrictive Role Function Domain Score Change From Baseline at Week 12, Least-squares mean, Difference (Rimegepant − Placebo)” value ([1]; Evaluable mITT subjects, P-value 0.0358)?
Its value is 3.5.

What about the “>=50% Reduction From OP in Mean Number of Moderate or Severe Migraine Days per Month in Last Month, Stratified Risk, Difference (Rimegepant − Placebo)” value ([1]; Evaluable mITT subjects, P-value 0.0734) of the same compound?
Its value is 5.7.

And the “Rescue Medication Days per Month In Last Month, Least-squares mean, Difference (Rimegepant − Placebo)” value ([1]; Evaluable mITT subjects, P-value 0.3868)?
The value was −0.2.

And the “MIDAS Total Score Change From Baseline at Week 12, Least-squares mean, Difference (Rimegepant − Placebo)” value ([1]; Evaluable mITT subjects, P-value 0.9616)?
Its value is −0.1.

What about the Pertussis [2] of the same compound?
Its Pertussis is 0 n.

And the “ALT/AST elevations: relatedness to study drug as judged by independent liver monitoring panel” value [3, 4]?
Its value is “did not determine any ALT/AST elevations to be in the categories of probably or definitely related to study drug”.

And the “cases of ALT or AST>3×ULN and bilirubin>2×ULN” value [3, 4]?
Its value is “no cases”.

And the Enterobiasis [3, 5]?
Its Enterobiasis is 0 n.

What about the Folliculitis [3, 5] of the same compound?
The Folliculitis was 0 n.

And the Oral candidiasis [3, 5]?
The Oral candidiasis was 0 n.

And the Orchitis [3, 5]?
The Orchitis was 0 n.

And the Otitis media [3, 5]?
Its Otitis media is 0 n.

And the Acute sinusitis [3, 6]?
The Acute sinusitis was 0 n.

What about the Appendicitis [3, 6] of the same compound?
Its Appendicitis is 0 n.

And the Bacterial vaginosis [3, 6]?
The Bacterial vaginosis was 0 n.

And the Herpes zoster [3, 6]?
Its Herpes zoster is 0 n.

What about the Pharyngitis streptococcal [3, 6] of the same compound?
Its Pharyngitis streptococcal is 0 n.

And the Pneumonia [3, 6]?
Its Pneumonia is 0 n.

And the Pyelonephritis [3, 6]?
The Pyelonephritis was 0 n.

What about the Sepsis [3, 6] of the same compound?
Its Sepsis is 0 n.

And the Acute sinusitis [3, 7]?
Its Acute sinusitis is 0 n.

What about the Appendicitis [3, 7] of the same compound?
Its Appendicitis is 0 n.

What about the Bacterial vaginosis [3, 7] of the same compound?
The Bacterial vaginosis was 0 n.

And the Herpes zoster [3, 7]?
Its Herpes zoster is 0 n.

And the Pharyngitis streptococcal [3, 7]?
Its Pharyngitis streptococcal is 0 n.

What about the Sepsis [3, 7] of the same compound?
The Sepsis was 0 n.

And the Acute sinusitis [3, 8]?
The Acute sinusitis was 0 n.

And the Appendicitis [3, 8]?
The Appendicitis was 0 n.

What about the Enterobiasis [3, 8] of the same compound?
The Enterobiasis was 0 n.

And the Folliculitis [3, 8]?
Its Folliculitis is 0 n.

What about the Oral candidiasis [3, 8] of the same compound?
The Oral candidiasis was 0 n.

What about the Orchitis [3, 8] of the same compound?
The Orchitis was 0 n.

What about the Otitis media [3, 8] of the same compound?
The Otitis media was 0 n.

What about the Pelvic inflammatory disease [3, 8] of the same compound?
The Pelvic inflammatory disease was 0 n.

What about the Pharyngitis streptococcal [3, 8] of the same compound?
Its Pharyngitis streptococcal is 0 n.

And the Pneumonia [3, 8]?
Its Pneumonia is 0 n.

What about the Pyelonephritis [3, 8] of the same compound?
The Pyelonephritis was 0 n.

And the Sepsis [3, 8]?
Its Sepsis is 0 n.

What about the Tooth infection [3, 8] of the same compound?
The Tooth infection was 0 n.
